Values joined by “and” are separate entries in the source; they are usually repeats but may differ in a detail not shown here. Equal values may be shown once.
Legend:
Assay in all cases: FP assay with Cy5-labelled p62 LIR tracer (protein titration and tracer displacement)
[1] = molecular target: LC3C (Homo sapiens, UniProt Q9BXW4); type: binding; settings: for normalized FP signal, p62 LIR tracer displacement: LC3C, listed as 10O5; for compound titration LC3C (displacement curve, FP signal): two replicate columns per compound
[2] = molecular target: GABARAP (Homo sapiens, UniProt O95166); type: binding; settings: for normalized FP signal, p62 LIR tracer displacement: GABARAP; for compound titration GABARAP (displacement curve, FP signal): two replicate columns per compound
[3] = molecular target: GABARAPL1 (Homo sapiens, UniProt Q9H0R8); type: binding; settings: for normalized FP signal, p62 LIR tracer displacement: GABARAPL1; for compound titration GABARAPL1 (displacement curve, FP signal): two replicate columns per compound; for FP tracer displacement curve signal (compound titration): duplicate values
[4] = molecular target: GABARAPL2 (Homo sapiens, UniProt P60520); settings: GABARAPL2
[5] = log10 concentration [M] -3.82391
[6] = log10 concentration [M] -4.1549
[7] = log10 concentration [M] -4.60206
[8] = log10 concentration [M] -5.30103
[9] = log10 concentration [M] -5.69897
[10] = log10 concentration [M] -6.22185
[11] = log10 concentration [M] -6.69897
[12] = log10 concentration [M] -7.30103
[13] = log10 concentration [M] -7.79588
[14] = log10 concentration [M] -8.08092
[15] = log10 concentration [M] -3.82391, listed as 10O5
[16] = log10 concentration [M] -4.1549, listed as 10O5
[17] = log10 concentration [M] -4.60206, listed as 10O5
[18] = log10 concentration [M] -5, listed as 10O5
[19] = log10 concentration [M] -5.30103, listed as 10O5
[20] = log10 concentration [M] -5.69897, listed as 10O5
[21] = log10 concentration [M] -6.22185, listed as 10O5
[22] = log10 concentration [M] -6.69897, listed as 10O5
[23] = log10 concentration [M] -7.79588, listed as 10O5
[24] = log10 concentration [M] -8.08092, listed as 10O5
[25] = log10 concentration [M] -7.30103, listed as 10O5

Chain of GABARAP (O95166 1-116): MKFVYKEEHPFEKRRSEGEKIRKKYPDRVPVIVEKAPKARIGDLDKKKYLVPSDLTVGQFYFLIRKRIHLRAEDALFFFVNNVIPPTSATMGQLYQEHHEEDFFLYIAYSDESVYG
Chain of GABARAPL1 (Q9H0R8 whole entry): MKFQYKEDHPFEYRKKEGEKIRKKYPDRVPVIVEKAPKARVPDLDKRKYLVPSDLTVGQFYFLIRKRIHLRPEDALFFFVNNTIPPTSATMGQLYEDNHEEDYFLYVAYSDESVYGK
Chain of LC3C (Q9BXW4 1-126): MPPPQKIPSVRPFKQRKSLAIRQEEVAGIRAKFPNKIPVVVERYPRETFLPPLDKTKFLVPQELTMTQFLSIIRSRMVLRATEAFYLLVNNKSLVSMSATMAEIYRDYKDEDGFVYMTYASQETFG
Chain of GABARAPL2 (P60520 whole entry): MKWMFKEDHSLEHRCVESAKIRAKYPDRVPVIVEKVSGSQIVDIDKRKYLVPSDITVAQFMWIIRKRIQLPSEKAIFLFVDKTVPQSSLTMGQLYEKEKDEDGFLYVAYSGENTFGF

## O=C1Nc2ccc(I)cc2C1=Cc1cc(Br)c(O)c(Br)c1 [compound 4]
[1]; [5]
  normalized FP signal, p62 LIR tracer displacement: 72 and 75.2
  compound titration LC3C (displacement curve, FP signal): 72 and 75.2
[1]; [6]
  normalized FP signal, p62 LIR tracer displacement: 84 and 83
  compound titration LC3C (displacement curve, FP signal): 84 and 83
[1]; [7]
  normalized FP signal, p62 LIR tracer displacement: 88.8 and 96.4
  compound titration LC3C (displacement curve, FP signal): 88.8 and 96.4
[1]; log10 concentration [M] -5
  normalized FP signal, p62 LIR tracer displacement: 88.2 and 92
  compound titration LC3C (displacement curve, FP signal): 88.2 and 92
[1]; [8]
  normalized FP signal, p62 LIR tracer displacement: 89.2 and 95.2
  compound titration LC3C (displacement curve, FP signal): 89.2 and 95.2
[1]; [9]
  normalized FP signal, p62 LIR tracer displacement: 86.6 and 88
  compound titration LC3C (displacement curve, FP signal): 86.6 and 88
[1]; [10]
  normalized FP signal, p62 LIR tracer displacement: 92 and 91.4
  compound titration LC3C (displacement curve, FP signal): 92 and 91.4
[1]; [11]
  normalized FP signal, p62 LIR tracer displacement: 94.6 and 95.8
  compound titration LC3C (displacement curve, FP signal): 94.6 and 95.8
[1]; [12]
  normalized FP signal, p62 LIR tracer displacement: 94.2 and 92.8
  compound titration LC3C (displacement curve, FP signal): 94.2 and 92.8
[1]; [13]
  normalized FP signal, p62 LIR tracer displacement: 92 and 89
  compound titration LC3C (displacement curve, FP signal): 92 and 89
[1]; [14]
  normalized FP signal, p62 LIR tracer displacement: 93.2 and 93.6
  compound titration LC3C (displacement curve, FP signal): 93.2 and 93.6
[2]; [15]
  normalized FP signal, p62 LIR tracer displacement: 56.3793 and 55.1724
[2]; [16]
  normalized FP signal, p62 LIR tracer displacement: 77.5862 and 81.7241
[2]; [17]
  normalized FP signal, p62 LIR tracer displacement: 88.4483 and 91.2069
[2]; [18]
  normalized FP signal, p62 LIR tracer displacement: 92.4138 and 92.2414
[2]; [19]
  normalized FP signal, p62 LIR tracer displacement: 93.9655 and 94.4828
[2]; [20]
  normalized FP signal, p62 LIR tracer displacement: 85.8621 and 86.7241
[2]; [21]
  normalized FP signal, p62 LIR tracer displacement: 92.2414 and 93.1034
[2]; [22]
  normalized FP signal, p62 LIR tracer displacement: 96.7241 and 92.4138
[2]; [12]
  normalized FP signal, p62 LIR tracer displacement: 97.069
  compound titration GABARAP (displacement curve, FP signal): 97.069
[2]; [23]
  normalized FP signal, p62 LIR tracer displacement: 90.8621 and 91.5517
[2]; [24]
  normalized FP signal, p62 LIR tracer displacement: 93.2759 and 95
[2]; [5]
  compound titration GABARAP (displacement curve, FP signal): 56.3793 and 55.1724
[2]; [6]
  compound titration GABARAP (displacement curve, FP signal): 77.5862 and 81.7241
[2]; [7]
  compound titration GABARAP (displacement curve, FP signal): 88.4483 and 91.2069
[2]; log10 concentration [M] -5
  compound titration GABARAP (displacement curve, FP signal): 92.4138 and 92.2414
[2]; [8]
  compound titration GABARAP (displacement curve, FP signal): 93.9655 and 94.4828
[2]; [9]
  compound titration GABARAP (displacement curve, FP signal): 85.8621 and 86.7241
[2]; [10]
  compound titration GABARAP (displacement curve, FP signal): 92.2414 and 93.1034
[2]; [11]
  compound titration GABARAP (displacement curve, FP signal): 96.7241 and 92.4138
[2]; [13]
  compound titration GABARAP (displacement curve, FP signal): 90.8621 and 91.5517
[2]; [14]
  compound titration GABARAP (displacement curve, FP signal): 93.2759 and 95
[3]; [15]
  normalized FP signal, p62 LIR tracer displacement: 50.4286 and 47.7143
[3]; [16]
  normalized FP signal, p62 LIR tracer displacement: 71.5714 and 73.7143
[3]; [17]
  normalized FP signal, p62 LIR tracer displacement: 89.5714 and 91.4286
[3]; [18]
  normalized FP signal, p62 LIR tracer displacement: 97.1429 and 94.8571
[3]; [19]
  normalized FP signal, p62 LIR tracer displacement: 95.1429 and 97.7143
[3]; [20]
  normalized FP signal, p62 LIR tracer displacement: 91.7143 and 95.8571
  FP tracer displacement curve signal (compound titration): 91.7143 and 95.8571
[3]; [21]
  normalized FP signal, p62 LIR tracer displacement: 93.8571 and 96
  FP tracer displacement curve signal (compound titration): 93.8571 and 96
[3]; [22]
  normalized FP signal, p62 LIR tracer displacement: 97.2857 and 99.8571
  FP tracer displacement curve signal (compound titration): 97.2857 and 99.8571
[3]; [25]
  normalized FP signal, p62 LIR tracer displacement: 99.2857 and 97.7143
  FP tracer displacement curve signal (compound titration): 99.2857 and 97.7143
[3]; [13]
  normalized FP signal, p62 LIR tracer displacement: 97
  FP tracer displacement curve signal (compound titration): 97
[3]; [24]
  normalized FP signal, p62 LIR tracer displacement: 97.1429 and 98.4286
  FP tracer displacement curve signal (compound titration): 97.1429 and 98.4286
[3]; [5]
  compound titration GABARAPL1 (displacement curve, FP signal): 50.4286 and 47.7143
[3]; [6]
  compound titration GABARAPL1 (displacement curve, FP signal): 71.5714 and 73.7143
[3]; [7]
  compound titration GABARAPL1 (displacement curve, FP signal): 89.5714 and 91.4286
[3]; log10 concentration [M] -5
  compound titration GABARAPL1 (displacement curve, FP signal): 97.1429 and 94.8571
[4]
  interaction in FP displacement assay: weak interaction
[4]; [15]
  normalized FP signal, p62 LIR tracer displacement: 56 and 50.4
[4]; [16]
  normalized FP signal, p62 LIR tracer displacement: 57.2 and 62.4
[4]; [17]
  normalized FP signal, p62 LIR tracer displacement: 87.2 and 100.4
[4]; [18]
  normalized FP signal, p62 LIR tracer displacement: 94.4 and 99.2
[4]; [19]
  normalized FP signal, p62 LIR tracer displacement: 99.6 and 96
[4]; [20]
  normalized FP signal, p62 LIR tracer displacement: 86.4 and 92.4
[4]; [10]
  normalized FP signal, p62 LIR tracer displacement: 100.4
[4]; [21]
  normalized FP signal, p62 LIR tracer displacement: 93.6
[4]; [22]
  normalized FP signal, p62 LIR tracer displacement: 96 and 103.2
[4]; [25]
  normalized FP signal, p62 LIR tracer displacement: 102.4 and 90.4
[4]; [13]
  normalized FP signal, p62 LIR tracer displacement: 94.8
[4]; [23]
  normalized FP signal, p62 LIR tracer displacement: 95.2
[4]; [24]
  normalized FP signal, p62 LIR tracer displacement: 111.2 and 97.6

From PMC11589570, “Critical assessment of LC3/GABARAP ligands used for degrader development and ligandability of LC3/GABARAP binding pockets” (Nature Communications, 2024)
